# Experimental data reported in PubChem BioAssay AID248 (DTP/NCI, 2004).
# Values joined by “and” are separate entries in the source; they are usually repeats but may differ in a detail not shown here. Equal entries are not always repeated. Toxic doses and inconclusive results are not listed.
# Test system: L1210 leukemia ip in BDF1 mice, survival T/C
# Test: NCI In Vivo Anticancer Drug Screen. Data for tumor model L1210 Leukemia (intraperitoneal) in B6D2F1 (BDF1) mice
# Settings: higher = longer survival
# In short: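 Transplanted-tumor mice were given test agent; controls received vehicle only. Survival readings from the two groups were divided (treated over control).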
smiles,measurement,setting,value
Nc1nc(=S)c2ncn(C3CC(O)C(CO)O3)c2[nH]1 (centres undefined),T/C,"endpoint: mean survival time, dose: 0.15 mg/kg/injection, schedule: Q01DX015 (ip), vehicle: carboxymethylcellulose (CMC)",121 % of control
same,T/C,"endpoint: mean survival time, dose: 0.31 mg/kg/injection, schedule: Q01DX009 (ip), vehicle: saline",119 % of control
same,T/C,"endpoint: mean survival time, dose: 0.32 mg/kg/injection, schedule: Q01DX015 (ip), vehicle: carboxymethylcellulose (CMC)",124 % of control
same,T/C,"endpoint: mean survival time, dose: 0.62 mg/kg/injection, schedule: Q01DX005 (ip), vehicle: clinical formulation",153 % of control
same,T/C,"endpoint: mean survival time, dose: 0.62 mg/kg/injection, schedule: Q01DX009 (ip), vehicle: saline",150 % of control
same,T/C,"endpoint: mean survival time, dose: 0.62 mg/kg/injection, schedule: Q01DX015 (ip), vehicle: carboxymethylcellulose (CMC)",151 % of control
same,T/C,"endpoint: mean survival time, dose: 0.63 mg/kg/injection, schedule: Q03HX008 (ip), vehicle: saline",162 % of control
same,T/C,"endpoint: mean survival time, dose: 0.63 mg/kg/injection, schedule: Q03HX024 (ip), vehicle: saline",167 % of control
same,T/C,"endpoint: mean survival time, dose: 0.9 mg/kg/injection, schedule: Q01DX009 (ip), vehicle: saline with Tween-80",150 % of control
same,T/C,"endpoint: mean survival time, dose: 1.25 mg/kg/injection, schedule: Q01DX005 (ip), vehicle: clinical formulation",150 % of control and 171 % of control
same,T/C,"endpoint: mean survival time, dose: 1.25 mg/kg/injection, schedule: Q01DX005 (ip), vehicle: saline",154 % of control
same,T/C,"endpoint: mean survival time, dose: 1.25 mg/kg/injection, schedule: Q01DX005 (ip), vehicle: water",163 % of control
same,T/C,"endpoint: mean survival time, dose: 1.25 mg/kg/injection, schedule: Q01DX009 (ip), vehicle: saline",156 % of control
same,T/C,"endpoint: mean survival time, dose: 1.25 mg/kg/injection, schedule: Q01DX015 (ip), vehicle: carboxymethylcellulose (CMC)",180 % of control and 218 % of control
same,T/C,"endpoint: mean survival time, dose: 1.25 mg/kg/injection, schedule: Q03HX008 (ip), vehicle: saline",155 % of control
same,T/C,"endpoint: mean survival time, dose: 1.25 mg/kg/injection, schedule: Q03HX016 (ip), vehicle: saline",163 % of control
same,T/C,"endpoint: mean survival time, dose: 1.25 mg/kg/injection, schedule: Q03HX024 (ip), vehicle: saline",157 % of control
same,T/C,"endpoint: mean survival time, dose: 1.56 mg/kg/injection, schedule: Q01DX009 (ip), vehicle: saline",161 % of control and 173 % of control
same,T/C,"endpoint: mean survival time, dose: 1.87 mg/kg/injection, schedule: Q01DX015 (ip), vehicle: carboxymethylcellulose (CMC)",113 % of control
same,T/C,"endpoint: mean survival time, dose: 2.5 mg/kg/injection, schedule: Q01DX001 (ip), vehicle: saline",120 % of control
same,T/C,"endpoint: mean survival time, dose: 2.5 mg/kg/injection, schedule: Q01DX002 (ip), vehicle: Klucel (hydroxypropylcellulose) (HPC)",177 % of control
same,T/C,"endpoint: mean survival time, dose: 2.5 mg/kg/injection, schedule: Q01DX005 (ip), vehicle: clinical formulation",173 % of control and 178 % of control
same,T/C,"endpoint: mean survival time, dose: 2.5 mg/kg/injection, schedule: Q01DX005 (ip), vehicle: saline",171 % of control
same,T/C,"endpoint: mean survival time, dose: 2.5 mg/kg/injection, schedule: Q01DX005 (ip), vehicle: water",173 % of control
same,T/C,"endpoint: mean survival time, dose: 2.5 mg/kg/injection, schedule: Q01DX009 (ip), vehicle: saline",161 % of control
same,T/C,"endpoint: mean survival time, dose: 2.5 mg/kg/injection, schedule: Q01DX015 (ip), vehicle: carboxymethylcellulose (CMC)",155 % of control and 187 % of control
same,T/C,"endpoint: mean survival time, dose: 2.5 mg/kg/injection, schedule: Q03HX008 (ip), vehicle: saline",156 % of control
same,T/C,"endpoint: mean survival time, dose: 2.5 mg/kg/injection, schedule: Q03HX016 (ip), vehicle: saline",167 % of control
same,T/C,"endpoint: mean survival time, dose: 2.5 mg/kg/injection, schedule: Q04DX003 (ip), vehicle: saline",155 % of control
same,T/C,"endpoint: mean survival time, dose: 2.5 mg/kg/injection, schedule: Q08DX002 (ip), vehicle: saline",124 % of control
same,T/C,"endpoint: mean survival time, dose: 3.12 mg/kg/injection, schedule: Q01DX009 (ip), vehicle: saline",191 % of control and 206 % of control
same,T/C,"endpoint: mean survival time, dose: 4.5 mg/kg/injection, schedule: Q01DX009 (ip), vehicle: saline with Tween-80",208 % of control
same,T/C,"endpoint: mean survival time, dose: 5.0 mg/kg/injection, schedule: Q01DX005 (ip), vehicle: clinical formulation",166 % of control and 202 % of control
same,T/C,"endpoint: mean survival time, dose: 5.0 mg/kg/injection, schedule: Q01DX005 (ip), vehicle: saline",158 % of control
same,T/C,"endpoint: mean survival time, dose: 5.0 mg/kg/injection, schedule: Q01DX005 (ip), vehicle: water",192 % of control
same,T/C,"endpoint: mean survival time, dose: 5.0 mg/kg/injection, schedule: Q01DX009 (ip), vehicle: saline",156 % of control
same,T/C,"endpoint: mean survival time, dose: 5.0 mg/kg/injection, schedule: Q01DX015 (ip), vehicle: carboxymethylcellulose (CMC)",166 % of control
same,T/C,"endpoint: mean survival time, dose: 5.0 mg/kg/injection, schedule: Q03HX024 (ip), vehicle: saline",97 % of control
same,T/C,"endpoint: mean survival time, dose: 5.0 mg/kg/injection, schedule: Q04DX003 (ip), vehicle: saline",152 % of control
same,T/C,"endpoint: mean survival time, dose: 6.0 mg/kg/injection, schedule: Q01DX005 (oral), vehicle: saline",108 % of control
same,T/C,"endpoint: mean survival time, dose: 6.25 mg/kg/injection, schedule: Q01DX009 (ip), vehicle: saline",153 % of control
same,T/C,"endpoint: mean survival time, dose: 7.0 mg/kg/injection, schedule: Q01DX015 (ip), vehicle: carboxymethylcellulose (CMC)",150 % of control
same,T/C,"endpoint: mean survival time, dose: 7.5 mg/kg/injection, schedule: Q01DX015 (ip), vehicle: carboxymethylcellulose (CMC)",151 % of control
same,T/C,"endpoint: mean survival time, dose: 10.0 mg/kg/injection, schedule: Q01DX005 (ip), vehicle: clinical formulation",154 % of control and 198 % of control
same,T/C,"endpoint: mean survival time, dose: 10.0 mg/kg/injection, schedule: Q01DX005 (ip), vehicle: saline",219 % of control
same,T/C,"endpoint: mean survival time, dose: 10.0 mg/kg/injection, schedule: Q01DX005 (ip), vehicle: water",156 % of control
same,T/C,"endpoint: mean survival time, dose: 10.0 mg/kg/injection, schedule: Q01DX009 (ip), vehicle: saline",95 % of control
same,T/C,"endpoint: mean survival time, dose: 10.0 mg/kg/injection, schedule: Q01DX015 (ip), vehicle: carboxymethylcellulose (CMC)",114 % of control
same,T/C,"endpoint: mean survival time, dose: 10.0 mg/kg/injection, schedule: Q03HX008 (ip), vehicle: saline",86 % of control
same,T/C,"endpoint: mean survival time, dose: 10.0 mg/kg/injection, schedule: Q04DX003 (ip), vehicle: Klucel (hydroxypropylcellulose) (HPC)",156 % of control
same,T/C,"endpoint: mean survival time, dose: 10.0 mg/kg/injection, schedule: Q04DX003 (ip), vehicle: saline",170 % of control
same,T/C,"endpoint: mean survival time, dose: 10.0 mg/kg/injection, schedule: Q08DX002 (ip), vehicle: saline",154 % of control
same,T/C,"endpoint: mean survival time, dose: 12.0 mg/kg/injection, schedule: Q01DX005 (oral), vehicle: saline",116 % of control
same,T/C,"endpoint: mean survival time, dose: 15.0 mg/kg/injection, schedule: Q01DX015 (ip), vehicle: carboxymethylcellulose (CMC)",106 % of control and 155 % of control and 236 % of control
same,T/C,"endpoint: mean survival time, dose: 20.0 mg/kg/injection, schedule: Q01DX002 (ip), vehicle: Klucel (hydroxypropylcellulose) (HPC)",115 % of control
same,T/C,"endpoint: mean survival time, dose: 20.0 mg/kg/injection, schedule: Q01DX005 (ip), vehicle: saline",97 % of control
same,T/C,"endpoint: mean survival time, dose: 20.0 mg/kg/injection, schedule: Q04DX003 (ip), vehicle: saline",190 % of control
same,T/C,"endpoint: mean survival time, dose: 20.0 mg/kg/injection, schedule: Q08DX002 (ip), vehicle: saline",157 % of control
same,T/C,"endpoint: mean survival time, dose: 25.0 mg/kg/injection, schedule: Q01DX009 (ip), vehicle: saline",94 % of control
same,T/C,"endpoint: mean survival time, dose: 40.0 mg/kg/injection, schedule: Q04DX003 (ip), vehicle: Klucel (hydroxypropylcellulose) (HPC)",150 % of control
same,T/C,"endpoint: mean survival time, dose: 40.0 mg/kg/injection, schedule: Q08DX002 (ip), vehicle: saline",168 % of control
same,T/C,"endpoint: mean survival time, dose: 50.0 mg/kg/injection, schedule: Q01DX005 (ip), vehicle: saline",90 % of control
same,T/C,"endpoint: mean survival time, dose: 50.0 mg/kg/injection, schedule: Q01DX009 (ip), vehicle: saline",86 % of control
same,T/C,"endpoint: mean survival time, dose: 60.0 mg/kg/injection, schedule: Q04DX003 (oral), vehicle: saline",120 % of control
same,T/C,"endpoint: mean survival time, dose: 80.0 mg/kg/injection, schedule: Q08DX002 (ip), vehicle: saline",153 % of control
same,T/C,"endpoint: mean survival time, dose: 96.0 mg/kg/injection, schedule: Q01DX005 (oral), vehicle: saline",91 % of control
same,T/C,"endpoint: mean survival time, dose: 100.0 mg/kg/injection, schedule: Q01DX005 (ip), vehicle: saline",155 % of control
same,T/C,"endpoint: mean survival time, dose: 120.0 mg/kg/injection, schedule: Q04DX003 (oral), vehicle: saline",113 % of control
same,T/C,"endpoint: mean survival time, dose: 125.0 mg/kg/injection, schedule: Q01DX015 (ip), vehicle: carboxymethylcellulose (CMC)",114 % of control
same,T/C,"endpoint: mean survival time, dose: 145.0 mg/kg/injection, schedule: Q01DX001 (ip), vehicle: saline with Tween-80",160 % of control
same,T/C,"endpoint: mean survival time, dose: 240.0 mg/kg/injection, schedule: Q04DX003 (oral), vehicle: saline",119 % of control
same,T/C,"endpoint: mean survival time, dose: 250.0 mg/kg/injection, schedule: Q01DX015 (ip), vehicle: carboxymethylcellulose (CMC)",96 % of control
same,T/C,"endpoint: mean survival time, dose: 480.0 mg/kg/injection, schedule: Q04DX003 (oral), vehicle: saline",96 % of control
same,T/C,"endpoint: mean survival time, dose: 960.0 mg/kg/injection, schedule: Q08DX002 (oral), vehicle: saline",100 % of control
same,T/C,"endpoint: median survival time, dose: 0.06 mg/kg/injection, schedule: Q03HX024 (ip), vehicle: saline",112 % of control
same,T/C,"endpoint: median survival time, dose: 0.07 mg/kg/injection, schedule: Q03HX024 (ip), vehicle: saline",112 % of control
same,T/C,"endpoint: median survival time, dose: 0.12 mg/kg/injection, schedule: Q03HX024 (ip), vehicle: saline",121 % of control
same,T/C,"endpoint: median survival time, dose: 0.13 mg/kg/injection, schedule: Q03HX024 (ip), vehicle: saline",121 % of control
same,T/C,"endpoint: median survival time, dose: 0.5 mg/kg/injection, schedule: Q03HX024 (ip), vehicle: saline",101 % of control
same,T/C,"endpoint: median survival time, dose: 1.0 mg/kg/injection, schedule: Q03HX024 (ip), vehicle: saline",104 % of control
same,T/C,"endpoint: median survival time, dose: 32.0 mg/kg/injection, schedule: Q03HX024 (ip), vehicle: saline",153 % of control
Brc1ccc(/C=C2\C=Cc3ccccc32)cc1,T/C,"endpoint: mean survival time, dose: 100.0 mg/kg/injection, schedule: Q01DX001 (ip), vehicle: carboxymethylcellulose (CMC)",98 % of control
same,T/C,"endpoint: mean survival time, dose: 200.0 mg/kg/injection, schedule: Q01DX001 (ip), vehicle: carboxymethylcellulose (CMC)",93 % of control
same,T/C,"endpoint: mean survival time, dose: 400.0 mg/kg/injection, schedule: Q01DX001 (ip), vehicle: carboxymethylcellulose (CMC)",93 % of control
